Data set [1] concerns the target T1, human TRPV1 receptor (hTRPV1) (Homo sapiens, UniProt Q8NER1).
T1 construct: expressed in transfected cells
The experiment in a line: Capsaicin activation assay (Ca2+ influx, FLIPR). The class given is cell-based. Conditions: 0.05 μM capsaicin, 1321N1 cells expressing hTRPV1. The procedure: Dulbecco's modified Eagle medium (D-MEM) (with 4.5 mg/mL glucose) and fetal bovine serum were obtained from Hyclone Laboratories, Inc. (Logan, Utah). Dulbecco's phosphate-buffered saline (D-PBS) (with 1 mg/mL glucose and 3.6 mg/l Na pyruvate, without phenol red), L-glutamine, hygromycin B, and Lipofectamine® were obtained from Life Technologies (Grand Island, N.Y.). G418 sulfate was obtained from Calbiochem-Novabiochem Corp. (San Diego, Calif.). Capsaicin (8-methyl-N-vanillyl-6-nonenamide) was obtained from Sigma-Aldrich, Co. (St. Louis, Mo.). Fluo-4 AM (N-[4-[6-[(acetyloxy)methoxy]-2,7-difluoro-3-oxo-3H-xanthen-9-yl]-2-[2-[2-[bis[2-[(acetyloxy)methoxy]-2-oxyethyl]amino]-5-methyl-phenoxy]ethoxy]phenyl]-N-[2-[(acetyloxy)methoxy]-2-oxyethyl]-glycine, (acetyloxy)methyl ester) was purchased from Molecular Probes (Eugene, Oreg.).
The cDNAs for the human TRPV1 receptor (hTRPV1) were isolated by reverse transcriptase-polymerase chain reaction (RT-PCR) from human small intestine poly A+RNA supplied by Clontech (Palo Alto, Calif.) using primers designed surrounding the initiation and termination codons identical to the published sequences (Hayes et al. Pain 2000, 88, 205-215). The resulting cDNA PCR products were subcloned into pCIneo mammalian expression vector (Promega) and fully sequenced using fluorescent dye-terminator reagents (Prism, Perkin-Elmer Applied Biosystems Division) and a Perkin-Elmer Applied Biosystems Model 373 DNA sequencer or Model 310 genetic analyzer. Expression plasmids encoding the hTRPV1 cDNA were transfected individually into 1321N1 human astrocytoma cells using Lipofectamine®. Forty-eight hours after transfection, the neomycin-resistant cells were selected with growth medium containing 800 μg/mL Geneticin (Gibco BRL). Surviving individual colonies were isolated and screened for TRPV1 receptor activity. Cells expressing recombinant homomeric TRPV1 receptors were maintained at 37° C. in D-MEM containing 4 mM L-glutamine, 300 μg/mL G418 (Cal-biochem) and 10% fetal bovine serum under a humidified 5% CO2 atmosphere.
The functional activity of compounds at the TRPV1 receptor was determined with a Ca^2+ influx assay and measurement of intracellular Ca^2+ levels ([Ca^2+]i). All compounds were tested over an 11-point half-log concentration range. Compound solutions were prepared in D-PBS (4× final concentration), and diluted serially across 96-well v-bottom tissue culture plates using a Biomek 2000 robotic automation workstation (Beckman-Coulter, Inc., Fullerton, Calif.). A 0.2 μM solution of the TRPV1 agonist capsaicin was also prepared in D-PBS. The fluorescent Ca^2+ chelating dye Fluo-4 AM was used as an indicator of the relative levels of [Ca^2+]i in a 96-well format using a Fluorescence Imaging Plate Reader (FLIPR) (Molecular Devices, Sunnyvale, Calif.). Cells were grown to confluency in 96-well black-walled tissue culture plates. Then, prior to the assay, the cells were loaded with 100 μL per well of Fluo-4 AM (2 μM, in D-PBS) for 1-2 hours at 23° C. Washing of the cells was performed to remove extracellular Fluo-4 AM (2×1 mL D-PBS per well), and afterward, the cells were placed in the reading chamber of the FLIPR instrument. 50 μL of the compound solutions were added to the cells at the 10 second time mark of the experimental run. Then, after a 3-minute time delay, 50 μL of the capsaicin solution was added at the, 190 second time mark (0.05 μM final concentration)(final volume=200 μL) to challenge the TRPV1 receptor. Time length of the experimental run was 240 seconds. Fluorescence readings were made at 1 to 5 second intervals over the course of the experimental run. The peak increase in relative fluorescence units (minus baseline) was calculated from the 190 second time mark to the end of the experimental run, and expressed as a percentage of the 0.05 μM capsaicin (control) response. […]

Data set [2] is described as follows: Rat telemetry protocol (core body temperature). Conditions: core body temperature of rats at one hour post dosing (100 μmol/kg, p.o.), relative to vehicle. The class given is in vivo. The procedure:
Male, Sprague Dawley rats, 225-250 grams were anesthetized with Sevoflurane (Abbott Laboratories). Rats were placed on a heating pad and covered with a sterile surgical drape. A ventral midline abdominal incision was made and sterile cotton tip applicators were used to gently move internal tissue and expose the abdominal aorta for implantation of the telemetry catheter (Data Sciences International; TL11M2-050-PXT). Blood flow was temporarily stopped to the lower extremities (5-7 min) with Diffenbach clamps to allow the insertion of the telemetry catheter into the abdominal aorta. Once inserted, a sterile cellulose patch was placed over the catheter/aorta and secured using a small amount of tissue adhesive (Vetbond, 3M). Once catheter placement was complete, the clamps were removed and blood flow was restored to the lower extremities. The transmitter was placed in the intraperitoneal cavity. The transmitter suture rib was sewn into the abdominal sutures to secure it in place. The skin was closed using sterile wound clips and the animal removed from Sevoflurane. Buprenex ([…] s.c.; Phoenix) was administered for post-operative analgesia. Animals were maintained on a heating pad until ambulatory, and then individually housed with food and water ad lib. Surgical staples were removed after 7-10 days post-implantation. Rats were allowed a 2-week post-surgical recovery period before treatment with test compound. Oral dosing (p.o.) was at time zero, with rats receiving a single dose of vehicle (10% EtOH, 20% Tween-80, 70% PEG-400) or a 100 μmol/kg dose of compound dissolved in vehicle. Temperature measurements were recorded every 15 minutes for the duration of the study (24 hours).
The term “core body temperature” as used herein, means the temperature measured in the intraperitoneal cavity.

These results are taken from patent US8609692B2, “TRPV1 antagonists” (AbbVie Inc., priority 2008, dated 2013).

By IC50 is commonly meant the concentration at which inhibition is half-maximal.

T1 sequence (Q8NER1 whole entry): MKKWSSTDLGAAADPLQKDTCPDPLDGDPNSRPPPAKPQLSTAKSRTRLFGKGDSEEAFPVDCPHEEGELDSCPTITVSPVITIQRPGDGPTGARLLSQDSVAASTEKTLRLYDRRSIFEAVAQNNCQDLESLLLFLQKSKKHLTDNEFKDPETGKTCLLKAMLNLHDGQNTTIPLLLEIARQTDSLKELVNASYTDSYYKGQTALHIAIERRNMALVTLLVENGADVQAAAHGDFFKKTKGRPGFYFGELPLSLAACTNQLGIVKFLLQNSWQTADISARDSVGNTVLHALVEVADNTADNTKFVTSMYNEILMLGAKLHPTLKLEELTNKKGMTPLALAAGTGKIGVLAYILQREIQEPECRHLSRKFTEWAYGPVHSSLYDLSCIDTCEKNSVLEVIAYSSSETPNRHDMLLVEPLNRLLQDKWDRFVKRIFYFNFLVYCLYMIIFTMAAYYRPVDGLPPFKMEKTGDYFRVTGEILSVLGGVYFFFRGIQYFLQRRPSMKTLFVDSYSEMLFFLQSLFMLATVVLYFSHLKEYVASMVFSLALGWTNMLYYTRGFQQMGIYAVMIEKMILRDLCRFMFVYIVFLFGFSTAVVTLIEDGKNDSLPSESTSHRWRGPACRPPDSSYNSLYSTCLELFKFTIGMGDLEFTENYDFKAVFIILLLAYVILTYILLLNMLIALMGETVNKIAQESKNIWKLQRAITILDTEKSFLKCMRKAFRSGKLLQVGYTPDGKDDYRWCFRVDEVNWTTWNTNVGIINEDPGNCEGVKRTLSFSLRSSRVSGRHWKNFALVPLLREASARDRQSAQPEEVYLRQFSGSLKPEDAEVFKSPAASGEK

On to `Cn1ncc2c(NC(=O)N[C@@H]3CC(C)(C)Oc4ccc(F)cc43)cccc21` [Example 1, N-[(4R)-6-fluoro-2,2-dimethyl-3,4-dihydro-2H-chromen-4-yl]-N′-(1-methyl-1H-indazol-4-yl)urea], for which, in data set [1], inhibition was half-maximal at 229 nM (IC50). Also, the “Δ Temp” value in data set [2] is 0.5 °C.
Taken in the same sequence, the figures for `CC1(C)C[C@@H](NC(=O)Nc2cccc3c2C[C@@H](O)CC3)c2cc(F)ccc2O1` [Example 3, N-[(4R)-6-fluoro-2,2-dimethyl-3,4-dihydro-2H-chromen-4-yl]-N′-[(7S)-7-hydroxy-5,6,7,8-tetrahydronaphthalen-1-yl]urea] were 32 nM and 0.6 °C.
Regarding `CC1(C)C[C@@H](NC(=O)Nc2cccc3c2C[C@H](O)CC3)c2cc(F)ccc2O1` [Example 4, N-[(4R)-6-fluoro-2,2-dimethyl-3,4-dihydro-2H-chromen-4-yl]-N′-[(7R)-7-hydroxy-5,6,7,8-tetrahydronaphthalen-1-yl]urea], the IC50 in data set [1] is 30 nM. Moreover, the “Δ Temp” value in data set [2] is 0.6 °C.
Taken in the same sequence, the figures for `O=C(Nc1cccc2c1C[C@@H](O)CC2)N[C@@H]1CC2(CCC2)Oc2ccc(F)cc21` [Example 9, N-[(4R)-6-fluoro-3,3′,4,4′-tetrahydro-2′H-spiro[chromene-2,1′-cyclobutan]-4-yl]-N′-[(7S)-7-hydroxy-5,6,7,8-tetrahydronaphthalen-1-yl]urea] were 28 nM and 0.9 °C.
The matching figures for `CC1(C)C[C@@H](NC(=O)Nc2cccc3c2C[C@H](O)CC3)c2cc(F)cc(F)c2O1` [Example 18, N-[(4R)-6,8-difluoro-2,2-dimethyl-3,4-dihydro-2H-chromen-4-yl]-N′-[(7R)-7-hydroxy-5,6,7,8-tetrahydronaphthalen-1-yl]urea]: 29 nM and 1.4 °C.
Take `Cn1ncc2c(NC(=O)N[C@@H]3CC(C)(C)Oc4cc(F)ccc43)cccc21` [Example 24, N-[(4R)-7-fluoro-2,2-dimethyl-3,4-dihydro-2H-chromen-4-yl]-N′-(1-methyl-1H-indazol-4-yl)urea]: 52 nM corresponded to half-maximal inhibition in data set [1] (IC50). In addition, the “Δ Temp” value in data set [2] turned out to be 1.3 °C.
The matching figures for `CC1(C)C[C@@H](NC(=O)Nc2cccc3[nH]ncc23)c2ccc(F)cc2O1` [Example 29, N-[(4R)-7-fluoro-2,2-dimethyl-3,4-dihydro-2H-chromen-4-yl]-N′-1H-indazol-4-ylurea]: 13 nM and 1.2 °C.
Taken in the same sequence, the figures for `Cn1ncc2c(NC(=O)N[C@@H]3CC(C)(C)Oc4cc(C(F)(F)F)ccc43)cccc21` [Example 33, N-[(4R)-2,2-dimethyl-7-(trifluoromethyl)-3,4-dihydro-2H-chromen-4-yl]-N′-(1-methyl-1H-indazol-4-yl)urea] were 14 nM and 1.4 °C.
Taken in the same sequence, the figures for `CC1(C)C[C@@H](NC(=O)Nc2cccc3c2C[C@H](O)CC3)c2ccccc2O1` [Example 36, N-[(4R)-2,2-dimethyl-3,4-dihydro-2H-chromen-4-yl]-N′-[(7R)-7-hydroxy-5,6,7,8-tetrahydronaphthalen-1-yl]urea] were 33 nM and 0.7 °C.
In turn, `Cn1ncc2c(NC(=O)N[C@@H]3CC(C)(C)Oc4cc(OC(F)(F)F)ccc43)cccc21` [Example 39, N-[(4R)-2,2-dimethyl-7-(trifluoromethoxy)-3,4-dihydro-2H-chromen-4-yl]-N′-(1-methyl-1H-indazol-4-yl)urea] yielded an IC50 in data set [1] of 25 nM. In data set [2], the “Δ Temp” value was found to be 0.7 °C.
“N-[(2R,4R)-2-(fluoromethyl)-2-methyl-7-(trifluoromethyl)-3,4-dihydro-2H-chromen-4-yl]-N-(3-methylisoquinolin-5-yl)urea [Example 127]”: in data set [1], the midpoint of inhibition, the IC50, lay at 25 nM.
“N-[(4R)-2,2-diethyl-8-fluoro-3,4-dihydro-2H-chromen-4-yl]-N-isoquinolin-8-ylurea [Example 83]” yielded an IC50 in data set [1] of 21 nM.
